Measured values taken from patent US20240299353A1, “COMPOSITIONS AND METHODS FOR TREATING […] 5-MEO-DMT” (Alvarius Pharmaceuticals Ltd., priority 2021, published 2024).

System: 5-HT1AR
Test: Western blot of 5-HT1AR in brain regions, chronic cocaine ± 5-MeO-DMT
Format: in vivo, Male Wistar rats
Description: Male Wistar rats aged 7 weeks were acclimatized to the facility for 1 week prior to the beginning of the study. […] Animals were euthanized 23- or 119-hours following vehicle or 5-MeO-DMT administration.
Following euthanasia brain regions of interest were isolated. Briefly, the olfactory bulbs were removed before the brain was placed in a rat brain matrix (FIG. 2A). Sterile blades were inserted at positions 2 and 3 (FIG. 2B) to extract a coronal slice containing the Bregma+˜0.2-+˜2.2 coordinates (FIG. 2C). From this tissue slice a blunted 12 G needle was used to punch dissect the NAc and dorsal striatum (DS) (FIG. 2D-2E) identified using the rat brain atlas (Panxinos and Watson 2nd edition). The PFC, hippocampus (Hip) and amygdala (Amyg) were then blunt dissected (FIG. 3A-3D). All regions were frozen in liquid nitrogen and stored at −80° C. until processed.
These treatment groups were used for the molecular assessment of addiction-linked markers.
Determination of protein concentration—a bicinchoninic acid assay (BCA, ThermoFisher) was conducted to determine the total protein concentration in tissue lysates following manufacturer's instructions. Briefly, bovine serum albumin (BSA) standards were prepared in a serial dilution (0-2.0 mg protein/ml) and 200 μl working reagent (50:1, reagent A: reagent B) was added to each of the standards and samples in a 96 well plate (Greiner). For tissue lysates a 1:10 dilution was performed with cell lysis buffer to ensure absorbance values lay within the working range established by the standards. All samples and standards were added in duplicate. The plate was covered and incubated for 30 mins at 37° C. before absorbance was read at 562 nm on a plate reader (SpectraMax M3). The absorbance values were used to form a standard curve of known protein concentrations and protein concentration of samples were derived using the equation of the line. All samples were standardized to the lowest protein concentration using distilled H20 (dH2O).
SDS-PAGE and Western Blotting—Following equalisation of protein concentrations, 6× sample loading buffer (15% SDS, 15% […], 50% glycerol, 0.01% bromophenol blue, […]) was added to each sample using a dilution factor of 1:5 of the total volumes before boiling at 100° C. for 5 mins. Samples were stored at −20° C. until use. One dimensional sodium-dodecyl-sulphate polyacrylamide gel electrophoresis (SDS-PAGE) was used for protein separation based on molecular weight. The percentage of acrylamide in the resolving or stacking gel was determined by the molecular weight of the protein of interest. In this instance all gels consisted of a 5% stacking gel and a 10% resolving gel with the exception of mGluR5, G9a (8%) and H3K9Me2 (12%). 20 μg of protein was loaded and resolved using SDS-PAGE. Gel electrophoresis was conducted at 80V while the protein was in the stacking gel, once it migrated to the resolving gel the voltage was increased to 120V and ran for 90 mins. Samples were transferred to a 0.45 μm polyvinylidene difluoride (PVDF) membrane (Analab) for 1 hour at 100V and blocked in 5% milk blocking solution made in tris-buffered saline containing tween®-20 (TBS-T, Sigma) for 90 mins. Primary antibodies (FIG. 5) were diluted in 5% BSA in TBS-T and incubated with membranes overnight at 4° C. or for 2 hours at room temperature. After incubation with primary antibodies the membranes were washed in TBS-T for 4×10 minutes before incubation with 1:2000 anti-rabbit and 1:2000 anti-mouse Alexa Fluro® conjugated secondary antibodies (Invitrogen) in 2% milk for 1 hour at room temperature. Membranes were washed in TBS-T for 4×10 minutes and in TBS for 1×10-minute wash. Proteins were visualized using Odyssey® infrared imaging system. Protein expression was quantified using Image Studio Lite (Version 5.2) and expression intensities were normalized to a house keeping protein, α-Tubulin or β-actin.

[1] = hippocampus, 120 h, all treatment groups

| SMILES | 5-HT1AR expression (amygdala, 24 h, cocaine, p=0.0172, no post hoc differences) | 5-HT1AR expression (amygdala, 120 h, cocaine) | 5-HT1AR expression (hippocampus, 24 h, repeated cocaine) | 5-HT1AR expression [1] | 5-HT1AR expression (hippocampus, 24 h, 10 mg/kg 5-MeO-DMT alone (decrease)) | 5-HT1AR expression (hippocampus, 24 h, 20 mg/kg 5-MeO-DMT alone) | 5-HT1AR expression (hippocampus, 24 h, cocaine + either 5-MeO-DMT concentration (10 or 20 mg/kg)) |
| --- | --- | --- | --- | --- | --- | --- | --- |
| COC(=O)[C@H]1[C@@H](OC(=O)c2ccccc2)C[C@@H]2CC[C@H]1N2C.Cl [cocaine, cocaine hydrochloride, reference compound] | significant cocaine effect | does not persist to 120 hours | decreased 5-HT1AR expression | equal across treatment groups |  |  |  |
| COc1ccc2[nH]cc(CCN(C)C)c2c1 [5-MeO-DMT, 5-methoxy-N,N-dimethyltryptamine] |  |  |  | equal across treatment groups | only the 10 mg/kg concentration achieves significance | trend towards decreasing expression levels | restoring receptor expression to levels comparable to control |
